# Assay results taken from ChEMBL document CHEMBL5052837, “Ghrelin o-acyltransferase inhibitors” (2019).
# The source made the active and inactive calls. No cut-off for these calls is given here.
# Columns and labels:
# Mus musculus [1] = experiment: In vivo inhibition of GOAT in fasting mouse assessed as reduction in acyl ghrelin level at 1 to 10 mg/kg, po administered twice a day for 2 days; type: functional, organism-based; conditions: dose 1-10 mg/kg, time 2.0 day
# Rattus norvegicus [2] = experiment: In vivo inhibition of GOAT in fasting rat assessed as reduction in acyl ghrelin level at 10 mg/kg; type: functional, organism-based
# Rattus norvegicus [3] = experiment: In vivo inhibition of GOAT in fasting rat assessed as increase in des-acyl ghrelin level at 10 mg/kg; type: functional, organism-based
# Mus musculus [4] = experiment: In vivo inhibition of GOAT in high fat, high carb (HFHC) diet-induced obesity model of C57BL/6 mouse assessed as increase in des-acyl ghrelin level at 10 mg/kg; type: functional, organism-based
# [5] = In vivo inhibition of GOAT in high fat, high carb (HFHC) diet-induced obesity model of C57BL/6 mouse assessed as reduction in acyl ghrelin level at 3 mg/kg; type: functional; design: scale not given: the % may be the effect or the level left
# Mus musculus [6] = experiment: In vivo inhibition of GOAT in high fat, high carb (HFHC) diet-induced obesity model of C57BL/6 mouse assessed as increase in des-acyl ghrelin level at 3 mg/kg; type: functional, organism-based
SMILES,Activity (Mus musculus [1]),Activity (Rattus norvegicus [2]),Activity (Rattus norvegicus [3]),Activity (Mus musculus [4]),Activity [5],Activity (Mus musculus [6])
O=C(O)Cc1csc2cc(O[C@H]3CCc4ncccc43)cc(Cl)c12,Active,Active,Active,Active,,
Cc1c(C(=O)NN2CCCCC2)nn(-c2ccc(Cl)cc2Cl)c1-c1ccc(Cl)cc1 [RIMONABANT],,,,,61%,Active
